According to PubChem BioAssay AID2060625 (Molecular Pharmacology Branch, DTP, NCI, 2025):

Tested on: 186277-243-T-J2-PDC spheroids with HUVEC/MSC, viability
Assay: Anticancer human tumor 186277-243-T-J2-PDC patient-derived colon adenocarcinoma cell line growth inhibition [CLK]
Settings: for IC50: curve of first compound; for viability, T/C: stronger effect = lower value; active = viability on the fitted dose curve at most 10% of control; inactive = the rest
In short: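 Multi-cell-type spheroids combined patient-derived tumor cells with HUVEC endothelial cells and human mesenchymal stem cells. Paired agents were dosed in half-log steps down from about clinical Cmax, or from 10 microM where Cmax was unknown.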

[1] = second compound 0.0316 µM, first compound 0.0316 µM
[2] = second compound 0.0316 µM, first compound 0.1 µM
[3] = second compound 0.1 µM, first compound 0.0316 µM
[4] = second compound 0.1 µM, first compound 0.1 µM
[5] = second compound 0.316 µM, first compound 0.0316 µM
[6] = second compound 0.316 µM, first compound 0.1 µM
[7] = second compound 1 µM, first compound 0.0316 µM
[8] = second compound 1 µM, first compound 0.1 µM
[9] = second compound 3.16 µM, first compound 0.0316 µM
[10] = second compound 3.16 µM, first compound 0.1 µM
[11] = second compound 10 µM, first compound 0.0316 µM
[12] = second compound 10 µM, first compound 0.1 µM
[13] = second compound 0.0316 µM, first compound 0.316 µM
[14] = second compound 0.0316 µM, first compound 1 µM
[15] = second compound 0.0316 µM, first compound 3.16 µM
[16] = second compound 0.0316 µM, first compound 10 µM
[17] = second compound 0.1 µM, first compound 0.316 µM
[18] = second compound 0.1 µM, first compound 1 µM
[19] = second compound 0.1 µM, first compound 3.16 µM
[20] = second compound 0.1 µM, first compound 10 µM
[21] = second compound 0.316 µM, first compound 0.316 µM
[22] = second compound 0.316 µM, first compound 1 µM
[23] = second compound 0.316 µM, first compound 3.16 µM
[24] = second compound 0.316 µM, first compound 10 µM
[25] = second compound 1 µM, first compound 0.316 µM
[26] = second compound 1 µM, first compound 1 µM
[27] = second compound 1 µM, first compound 3.16 µM
[28] = second compound 1 µM, first compound 10 µM
[29] = second compound 3.16 µM, first compound 0.316 µM
[30] = second compound 3.16 µM, first compound 1 µM
[31] = second compound 3.16 µM, first compound 3.16 µM
[32] = second compound 3.16 µM, first compound 10 µM
[33] = second compound 10 µM, first compound 0.316 µM
[34] = second compound 10 µM, first compound 1 µM
[35] = second compound 10 µM, first compound 3.16 µM
[36] = second compound 10 µM, first compound 10 µM
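Note: compound exposure lasted seven days before readout.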
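Throughout, for viability, T/C: 100% = DMSO vehicle control wells.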

Cn1ncnc1[C@H]1c2n[nH]c(=O)c3cc(F)cc(c23)N[C@@H]1c1ccc(F)cc1 + CNC(=O)c1ccc(Nc2nc(OC3CCCC3)c3c(-c4ccc5nc(C)oc5c4)c[nH]c3n2)c(OC)c1
< 0.316 nM: IC50 (second compound 0.316 µM) | IC50 (second compound 1 µM) | IC50 (second compound 3.16 µM) | IC50 (second compound 10 µM)
> 100 nM: IC50 (second compound 0.0316 µM) | IC50 (second compound 0.1 µM)
inactive: viability, T/C (second compound 0.0316 µM, first compound 0.000316 µM) 94.7% | viability, T/C (second compound 0.0316 µM, first compound 0.001 µM) 103% | viability, T/C (second compound 0.0316 µM, first compound 0.00316 µM) 107% | viability, T/C (second compound 0.0316 µM, first compound 0.01 µM) 105% | viability, T/C [1] 107% | viability, T/C [2] 113% | viability, T/C (second compound 0.1 µM, first compound 0.000316 µM) 63.8% | viability, T/C (second compound 0.1 µM, first compound 0.001 µM) 61.7% | viability, T/C (second compound 0.1 µM, first compound 0.00316 µM) 66.6% | viability, T/C (second compound 0.1 µM, first compound 0.01 µM) 62.3% | viability, T/C [3] 69.9% | viability, T/C [4] 68.5% | viability, T/C (second compound 0.316 µM, first compound 0.000316 µM) 36.9% | viability, T/C (second compound 0.316 µM, first compound 0.001 µM) 42.5% | viability, T/C (second compound 0.316 µM, first compound 0.00316 µM) 46.3% | viability, T/C (second compound 0.316 µM, first compound 0.01 µM) 46.2% | viability, T/C [5] 49.4% | viability, T/C [6] 48.6% | viability, T/C (second compound 1 µM, first compound 0.000316 µM) 27% | viability, T/C (second compound 1 µM, first compound 0.001 µM) 31.4% | viability, T/C (second compound 1 µM, first compound 0.00316 µM) 31.4% | viability, T/C (second compound 1 µM, first compound 0.01 µM) 33.2% | viability, T/C [7] 40% | viability, T/C [8] 30.2% | viability, T/C (second compound 3.16 µM, first compound 0.000316 µM) 27.1% | viability, T/C (second compound 3.16 µM, first compound 0.001 µM) 27.8% | viability, T/C (second compound 3.16 µM, first compound 0.00316 µM) 31.1% | viability, T/C (second compound 3.16 µM, first compound 0.01 µM) 30.9% | viability, T/C [9] 33% | viability, T/C [10] 30.7% | viability, T/C (second compound 10 µM, first compound 0.000316 µM) 30.3% | viability, T/C (second compound 10 µM, first compound 0.001 µM) 29.3% | viability, T/C (second compound 10 µM, first compound 0.00316 µM) 31.9% | viability, T/C (second compound 10 µM, first compound 0.01 µM) 30.9% | viability, T/C [11] 36.2% | viability, T/C [12] 32.3%

Nc1ccn(C2OC(CO)C(O)C2(F)F)c(=O)n1 (stereo unspecified) + CNC(=O)c1ccc(Nc2nc(OC3CCCC3)c3c(-c4ccc5nc(C)oc5c4)c[nH]c3n2)c(OC)c1
inactive: viability, T/C [1] 13.3% | viability, T/C [2] 10.8% | viability, T/C [13] 12% | viability, T/C [14] 14.9% | viability, T/C [15] 14.7% | viability, T/C [16] 13.9% | viability, T/C [3] 15.8% | viability, T/C [4] 13.3% | viability, T/C [17] 13.3% | viability, T/C [18] 13.3% | viability, T/C [19] 14.8% | viability, T/C [20] 12.4% | viability, T/C [11] 9.98%
< 31.6 nM: IC50 (second compound 0.0316 µM) | IC50 (second compound 0.1 µM) | IC50 (second compound 0.316 µM) | IC50 (second compound 1 µM) | IC50 (second compound 3.16 µM) | IC50 (second compound 10 µM)
active: viability, T/C [5] 9.79% | viability, T/C [6] 9.9% | viability, T/C [21] 9.39% | viability, T/C [22] 11.3% | viability, T/C [23] 9.88% | viability, T/C [24] 8.65% | viability, T/C [7] 9.1% | viability, T/C [8] 8.33% | viability, T/C [25] 8.5% | viability, T/C [26] 8.25% | viability, T/C [27] 5.96% | viability, T/C [28] 6.34% | viability, T/C [9] 8.6% | viability, T/C [10] 7.49% | viability, T/C [29] 7.26% | viability, T/C [30] 8.76% | viability, T/C [31] 6.3% | viability, T/C [32] 6.38% | viability, T/C [12] 9.04% | viability, T/C [33] 6.83% | viability, T/C [34] 7.74% | viability, T/C [35] 6.77% | viability, T/C [36] 5.84%

O=c1[nH]cc(F)c(=O)[nH]1 + CNC(=O)c1ccc(Nc2nc(OC3CCCC3)c3c(-c4ccc5nc(C)oc5c4)c[nH]c3n2)c(OC)c1
5330 nM: IC50 (second compound 0.1 µM)
> 10000 nM: IC50 (second compound 0.0316 µM)
inactive: viability, T/C [1] 97.9% | viability, T/C [2] 95.6% | viability, T/C [13] 109% | viability, T/C [14] 102% | viability, T/C [15] 86.2% | viability, T/C [16] 56.8% | viability, T/C [3] 70.6% | viability, T/C [4] 66.2% | viability, T/C [17] 64.2% | viability, T/C [18] 61.5% | viability, T/C [19] 58.1% | viability, T/C [20] 42.1% | viability, T/C [5] 43.7% | viability, T/C [6] 43.6% | viability, T/C [21] 39.4% | viability, T/C [22] 41% | viability, T/C [23] 37.3% | viability, T/C [24] 25.6% | viability, T/C [7] 30.9% | viability, T/C [8] 29.4% | viability, T/C [25] 28.1% | viability, T/C [26] 28.6% | viability, T/C [27] 24.9% | viability, T/C [28] 15% | viability, T/C [9] 27.6% | viability, T/C [10] 26.9% | viability, T/C [29] 24.8% | viability, T/C [30] 28.3% | viability, T/C [31] 24.4% | viability, T/C [32] 12.1% | viability, T/C [11] 30.1% | viability, T/C [12] 30.3% | viability, T/C [33] 29.4% | viability, T/C [34] 29.2% | viability, T/C [35] 27.6% | viability, T/C [36] 12%
< 31.6 nM: IC50 (second compound 0.316 µM) | IC50 (second compound 1 µM) | IC50 (second compound 3.16 µM) | IC50 (second compound 10 µM)
